# Tests used:
# Hela cells = assay: MTT toxicity to tumor cells, under light and in the dark; assay type: cell-based; conditions: Homo sapiens, under light, 450-480 nm laser, 110 mW/cm^2, 900 s
# Experimental: (§1) In this experimental example, the toxicity of the compound to tumor cells was tested by an MTT method including the following specific steps.
# (§2) (1) Logarithmic cells were collected, the concentration of a cell suspension was adjusted, the cell suspension was added to a cell culture plate in a dose of 100 μL per well, and the cells were then added to a cell culture plate so that the density of the cells to be tested was adjusted to 1000-10000 wells (edge wells were filled with sterile PBS).
# (§3) (2) The cells were incubated at 37° C. in the presence of 5% CO2 until the cells in a single layer covered the bottom of each well (96-well flat-bottom plate), and a drug in concentration gradients was added. Generally, the drug in 5 to 7 gradients was added in a dose of 100 μL per well, and 3 to 5 multi-wells were set.
# (§4) (3) The cells were randomly divided into treated groups under light and treated groups in the dark, incubated at 37° C. in the presence of 5% CO2 for 16 h to 48 h, and observed with an inverted microscope.
# (§5) (4) The cells were irradiated for 900 s with a laser having a wavelength of 450 nm to 480 nm (at an intensity of 110 mW/cm^2), and the final light dose was about 100 J/cm^2. After light irradiation, the cells were washed with PBS.
# (§6) (5) An MTT solution (5 mg/ml, 0.5% MTT) was added in a dose of 20 μL per well to further incubate the cells for 4 h. If the drug could react with the MTT, centrifuging was carried out first, and then the culture solution was discarded and the cells were carefully washed twice or three times with PBS, and then the culture solution containing MTT was added.
# (§7) (6) The culture was terminated and the culture solution in the wells was carefully removed.
# (§8) (7) Dimethyl sulfoxide was added in a dose of 150 μL per well, and the plate was then shaken on a shaker at a low speed for 10 min to fully dissolve crystals. The absorbance at OD 490 nm of each well was measured with enzyme-linked immunoassay.
# (§9) (8) Zero adjustment wells (medium, MTT, dimethyl sulfoxide) and control wells (cells, dissolving media of the same concentration, culture solution, MTT, dimethyl sulfoxide) were set at the same time.
# SW480 colon cancer cells = assay: as above; assay type: cell-based; conditions: Homo sapiens, SW480; under light, 450-480 nm laser, 110 mW/cm^2, 900 s
# Experimental: as §1, §2, §3, §4, §5, §6, §7, §8, §9
# [1] = test system: 4T1 cells (breast cancer cells in mice); assay: Photodynamic therapy of tumors in mice (tumor size, tumor weight, B cells in tumor tissue); assay type: in vivo, BALB/C mice; conditions: 14 days after treatment
# Experimental: 1. Photodynamic therapy experiments on tumors were carried out by using BJMU-204 as a photosensitizer and BALB/C mice as experimental animals. Modeling mode: BALB/C mice were divided into 5 groups in total, 11-12 mice in each group. 4T1 cells (breast cancer cells in mice) were resuscitated and subcultured to a better cell state for tumorigenesis inoculation. BALB/C mice were locally depilated and disinfected, and tumor cells were injected into the mouse mammary fat pad in situ. Tumors were formed within 7 to 10 days. […] [table] 2. Mice in each experimental group were subjected to blood collection for serum separation and necropsy, and tumors were taken out and measured to obtain their wet weights; tumor tissues were fixed, pathological examinations were performed, and H. E. staining was used to observe the changes of tumors of the mice under an optical microscope; blood routine indicators (including white blood cell count (WBC), red blood cell count (RBC), lymphocyte count (LY), platelet count (PLT) and many other blood routine indicators) and blood biochemical indicators (including routine blood biochemical indicators) were tested and analyzed in the Laboratory of Peking University Third Hospital. 3. Tumors were taken out of mice in each experimental group, a piece of tumor tissue about 1 cm*1 cm*0.5 cm in size was cut up and placed in a 10 ml EP tube. 5 ml of pancreatin was added for digestion. 30 min later, the digestion was ended. The digestion solution and the tumor tissue were sieved through a single cell sieve to obtain a tumor tissue single-cell suspension. B220 antibody (for flow cytometry) was added to the suspension and the resulting solution was stained with a PI staining solution; 30 min later, the staining was ended and the staining solution was removed; next, re-suspending was carried out with a PBS solution for test with a flow cytometry.
# [2] = Phototoxicity to healthy mice (body weight, blood routine, blood biochemistry); assay type: in vivo, BALB/C mice
# Experimental: BALB/C mice were divided into 2 groups in total, 9 mice in each group. The mice were fed adaptively for 2 days. Mice in a control group were fed normally, and mice in an experimental group were given photodynamic therapy by subcutaneous injection every other day under the irradiation of laser with a wavelength of 450 nm to 480 nm at a light intensity of 200 mW/cm^2.
# Administration mode: as shown in the table below, the photosensitizer was dissolved in physiological saline and subcutaneously injected in mice in the experimental group, and the group receiving photodynamic therapy was irradiated with light immediately after the injection.
# 2. The mice in the experimental group and the control group were weighed every other day. At the end of the experiment, the mice were subjected to blood collection for serum separation and necropsy, and blood routine indicators (including WBC, RBC, LY, PLT and many other blood routine indicators) and blood biochemical indicators (including routine blood biochemical indicators) were tested and analyzed in the Laboratory of Peking University Third Hospital.
# [3] = test system: human immortalized keratinocyte (Hacat cells); assay: MTT cytotoxicity to normal cells, Experimental Example 5; assay type: cell-based
# Experimental: (1) Logarithmic phase cells were collected, the concentration of a cell suspension was adjusted, the cell suspension was added to a cell culture plate in a dose of 100 μL per well, and the cells were then added to a cell culture plate so that the density of the cells to be tested was adjusted to 1000-10000 wells (edge wells were filled with sterile PBS). […] Generally, the drug in 5 to 7 gradients was added in a dose of 100 μL per well, and 3 to 5 wells were set for each concentration of a drug. […] Cells in the experimental photosensitizer-light irradiation group were incubated for 15 min and then irradiated with light. […] After light irradiation, the cells were washed with PBS. […] After light irradiation, the cells were washed with PBS. […] If the drug could react with the MTT, centrifuging was carried out first, and then the culture solution was discarded and the cells were carefully washed twice or three times with PBS, and then the culture solution containing MTT was added. (6) The culture was terminated and the culture solution in the wells was carefully removed. (7) Dimethyl sulfoxide was added in a dose of 150 μL per well, and the plate was then shaken on a shaker at a low speed for 10 min to fully dissolve crystals. The absorbance at OD 490 nm of each well was measured with enzyme-linked immunoassay. […]
# [4] = 3% subcutaneous injection + light 10 min, after 2 weeks
compound,measurement,setting,value
CC(=O)C(C)=O [BJMU-204],IC50,Hela cells,600 ± 20 nM
same,IC50,SW480 colon cancer cells,600 ± 50 nM
same,number of B cells in tumor tissues,[1]; 3% (p<0.001) and 0.5% (p<0.01) intratumoral + light vs control,increases significantly
same,weight changes of tumor tissues,"[1]; 3% and 0.5% intratumoral + light, both p<0.001 vs control, better at high concentration",obvious growth inhibition effect
same,size changes of tumor tissues,"[1]; 3% and 0.5% intratumoral + light, both p<0.001 vs control, more prominent at high concentration",controlled and decreased
same,"body weight, experimental group vs control group","[2]; 3% subcutaneous + light, 14 days after treatment",no significant difference
same,Hematocrit (HCT),[2]; [4],45.22 ± 2.83
same,Hemoglobin (HGB),[2]; [4],160.22 ± 12.07
same,Mean corpuscular hemoglobin (MCH),[2]; [4],16.18 ± 0.34
same,Mean corpuscular hemoglobin concentration (MCHC),[2]; [4],354.11 ± 8.19
same,Mean corpuscular volume (MCV),[2]; [4],45.71 ± 0.6
same,Mean platelet volume (MPV),[2]; [4],6.23 ± 0.37
same,Platelet count (PLT),[2]; [4],290 ± 50.23
same,Platelet distribution width (PDW),[2]; [4],14.84 ± 0.6
same,Plateletocrit (PCT),[2]; [4],0.17 ± 0.03
same,Red blood cell volume distribution width (RDW),[2]; [4],12.67 ± 0.54
same,Red blood count (RBC),[2]; [4],9.9 ± 0.72
same,White blood cell count (WBC),[2]; [4],6.56 ± 0.54
same,"liver, kidney and blood toxicity",[2]; continuous treatment for 14 days at high concentration therapeutic doses,"will not cause liver, kidney and blood toxicity"
same,cytotoxicity to Hacat cells,[3],relatively low cytotoxicity

# — patent publication US20220257764A1, “USE OF DIKETONE COMPOUND IN PHOTODYNAMIC THERAPY OR DIAGNOSIS” (BEIJING WHOLESOMETECH CO., LTD., priority 2019, published 2022)
